The values that follow come from ChEMBL document CHEMBL1154469, “Design and synthesis of bisubstrate inhibitors of type 1 17beta-hydroxysteroid dehydrogenase: overview and perspectives” (Eur J Med Chem, 2008).

The target of assay [1] is T1, 17-beta-hydroxysteroid dehydrogenase type 1 (Homo sapiens) (UniProt P14061).
T1 sequence (whole entry): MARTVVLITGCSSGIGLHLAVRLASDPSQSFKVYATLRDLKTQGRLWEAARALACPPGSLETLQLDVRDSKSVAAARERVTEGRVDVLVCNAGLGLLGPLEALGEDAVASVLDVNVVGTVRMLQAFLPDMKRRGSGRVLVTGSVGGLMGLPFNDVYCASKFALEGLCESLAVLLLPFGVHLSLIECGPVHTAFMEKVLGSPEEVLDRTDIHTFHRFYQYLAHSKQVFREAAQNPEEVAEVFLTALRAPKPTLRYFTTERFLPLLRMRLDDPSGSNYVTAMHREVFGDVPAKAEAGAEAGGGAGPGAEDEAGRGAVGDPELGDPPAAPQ
In words: Inhibition of 17beta-HSD1 expressed in HEK 293 cells assessed as conversion of [14C]estrone to [14C]estradiol at 0.1 uM using NADH. The format is cell-based. The following applies: HEK293.

In assay [2] the target is T2, 17-beta-hydroxysteroid dehydrogenase type 1 (Homo sapiens, UniProt P14061).
T2 sequence (P14061 whole entry): T1 sequence (whole entry)
As to the kind of experiment: Inhibition of 17beta-HSD1 expressed in HEK 293 cells assessed as conversion of [14C]estrone to [14C]estradiol using NADPH. Type of assay: cell-based, HEK293.

The structures appear in SMILES notation.

As a reminder, the inhibition is how much of the control response was suppressed. Take `C[C@]12CC[C@@H]3c4ccc(O)cc4CC[C@H]3[C@@H]1C[C@H](CCCCCCCCCCCCCc1cc(N)cc(CC(=O)O)c1)[C@@H]2O`: the inhibition in assay [1] was determined as 27%.
Same read-out and setting: with `C[C@]12CC[C@@H]3c4ccc(O)cc4CC[C@H]3[C@@H]1C[C@H](CCCCCCCCCCCCCc1cccc(CC(=O)O)c1)[C@@H]2O` the figure was 49%.
Broadly, the IC50 is the concentration that gives 50% inhibition. With `C[C@]12CC[C@@H]3c4ccc(O)cc4CC[C@H]3[C@@H]1C[C@H](CCCCCCCCC(=O)OC[C@H]1O[C@@H](n3cnc4c(N)ncnc43)[C@H](O)[C@@H]1O)[C@@H]2O`, the IC50 in assay [2] is 8 nM.
